What all share (assay): Carbapenem potentiation against clinical isolate
One test has as its system EA1019 (SHV-5, VIM-1). In kind it is cell-based, Enterobacter aerogenes. The note with it: Klebsiella aerogenes; strain EA1019; read-out: Doripenem MIC Alone. An excerpt:
(§1) The results are present in Table 6.
(§2) The results are present in Table 7.

The test system of test [1] is KP1074 (KPC-3, SHV-11, TEM). In kind it is cell-based. To be noted: Klebsiella pneumoniae; strain KP1074; read-out: Doripenem MIC Alone.
Excerpt: as §1, §2

In test [2] the test system is EC1064 (NDM-1, CMY-6, CTX-M-15). In kind it is cell-based. To be noted: Escherichia coli; strain EC1064; read-out: Doripenem MIC Alone.
Excerpt: as §1, §2

The next test relates to AB1144 (NDM-1). In kind it is cell-based. The note with it: Acinetobacter baumannii, strain AB1144; read-out: Doripenem MIC Alone.
Excerpt: as §1, §2

The subject of a further test is KP1054 (VIM-1, SHV-11). In kind it is cell-based. The note with it: Klebsiella pneumoniae; strain KP1054; read-out: Doripenem MIC Alone.
Excerpt: as §1, §2

Test [3] relates to KP1084 (KPC-3, SHV-11, TEM-1). In kind it is cell-based. The note with it: Klebsiella pneumoniae; strain KP1084; read-out: Doripenem MIC Alone.
Excerpt: as §1, §2

The next test concerns KP1014 (VIM-1). In kind it is cell-based. To be noted: Klebsiella pneumoniae; strain KP1014; read-out: Doripenem MIC Alone.
Excerpt: as §1, §2

The subject of test [4] is KP1081 (NDM-1, TEM-1, SHV-11, CMY-6, CTX-M-15). In kind it is cell-based. To be noted: Klebsiella pneumoniae; strain KP1081; read-out: Doripenem MIC Alone.
Excerpt: as §1, §2

The subject of test [5] is KP1086 (TEM, SHV, CTX-M-15, OXA-48). In kind it is cell-based. To be noted: Klebsiella pneumoniae; strain KP1086; read-out: Doripenem MIC Alone.
Excerpt: as §1, §2

Test [6] concerns KP1064 (KPC-2, SHV-11, TEM-1). In kind it is cell-based. The note with it: Klebsiella pneumoniae; strain KP1064; read-out: Doripenem MIC Alone.
Excerpt: as §1, §2

The subject of test [7] is KP1004 (KPC-2, TEM-1, SHV-11). In kind it is cell-based. To be noted: Klebsiella pneumoniae, strain KP1004; read-out: Doripenem MIC Alone.
Excerpt: as §1, §2

Test [8] relates to KP1087 (KPC-2, CTX-M-15, SHV-11, TEM-1). In kind it is cell-based. To be noted: Klebsiella pneumoniae; strain KP1087; read-out: Doripenem MIC Alone.
Excerpt: as §1, §2

Where only a bound is given, the exact number is not on record here.

As usually defined, the MIC is the lowest concentration found to suppress growth. For the molecule `C[C@@H](O)[C@H]1C(=O)N2C(C(=O)O)=C(S[C@@H]3CN[C@H](CNS(N)(=O)=O)C3)[C@H](C)[C@H]12` [Doripenem], the MIC in the test with EA1019 (SHV-5, VIM-1) was greater than 10 µg/mL; in test [1] it was greater than 10 µg/mL; in test [2], greater than 10 µg/mL; in the test with AB1144 (NDM-1) it was greater than 10 µg/mL; in the test with KP1054 (VIM-1, SHV-11), greater than 10 µg/mL; in [3], greater than 10 µg/mL. The MIC in the test with KP1014 (VIM-1) is greater than 10 µg/mL; in test [4] it was greater than 10 µg/mL; in test [5], greater than 10 µg/mL; in [6], greater than 10 µg/mL; in test [7], 1 to 10 µg/mL; in [8], greater than 10 µg/mL.

For the origin of these results see US9241947B2, “Boronic acid derivatives and therapeutic uses thereof” (priority 2013, dated 2016).
